The values below come from the NIST ThermoML archive (doi:10.1021/acs.jced.5b00814).

The conditions of data set [1]: Crystal; DTA.
Data set [2] is described as follows: Molar enthalpy of transition or fusion. The following applies: Crystal; DSC.

± gives the expanded uncertainty stated by the source.

As to `O=C(O)/C=C/c1ccccc1` [(E)-cinnamic acid], the Normal melting temperature in data set [1] turned out to be 133.00 ± 0.7 °C. Further, the “Molar enthalpy of transition or fusion” value in data set [2] is 22.2 ± 0.85 kJ/mol.
